Reference: article PMC7434981, “Development of a Novel Positron Emission Tomography (PET) Radiotracer Targeting Bromodomain and Extra-Terminal Domain (BET) Family Proteins” (Frontiers in Molecular Biosciences, 2020)
pKd, pKi: −log10 of the molar value.

Tests used:
[1] = tested on: non-BET bromodomain-containing proteins; design: method as in Zhao et al., 2018; conditions: ref Zhao et al., 2018; cited from earlier work
BET BD1 = biological target: BET BD1; design: method as in Zhao et al., 2018; conditions: ref Zhao et al., 2018, cited from earlier work
[2] = Dynamic PET/CT imaging in mice, baseline uptake and biodistribution; type: in vivo, male Balb/c mice
Method: Following the successful radiosynthesis, we stepped forward to evaluate [^11C]1 as a potential BET PET radiotracer by PET imaging experiments in rodents. Dynamic PET imaging in male Balb/c mice was conducted following the injection of [^11C]1 via the tail vein at the dose of 3.7–7.4 Mbq for each scan. Each dynamic PET imaging scan lasted for 60 min and followed by a 10-min of computed tomography (CT) scan. The PET/CT imaging analysis was then performed by dynamic data collection and image reconstruction. The biodistribution of [^11C]1 in the whole-body of mice is initially studied. As depicted in Figure 2, four time-points (5, 10, 30, and 60 min) after [^11C]1 injection were selected to evaluate the uptake, biodistribution, and clearance of the radioligand in the organs of interests. […] In the heart, spleen, and lung, the uptakes of radioligand reached a peak sharply and followed by gradual wash-out post-injection.
(§1) The general procedure for rodent PET/CT studies was described previously ([Bai et al., 2019], [2020a]). Briefly, the PET/CT scan was carried out by a Triumph Trimodality/SPECT scanner (Gamma Medica, Northridge, CA, United States). Mice were arranged under anesthetized 2% isoflurane (Patterson Vet Supply, Inc., Greeley, CO, United States) in a carrier of 2 L/min medical oxygen during the imaging scanning. [^11C]1 (3.7–7.4 Mbq per animal, n = 2) was injected in mice via a lateral tail vein catheterization before PET acquisition. For the blocking study, the radioligand was administrated after CF53, or JQ1 was injected via a lateral tail vein catheterization 5-min before the start of PET acquisition. Dynamic PET acquisition lasted for 60 min followed by 10-min CT for anatomic co-registration. PET data were reconstructed using a 3D-MLEM method resulting in full width at a half-maximum resolution of 1 mm. These files were imported and analyzed using AMIDE ([Loening and Gambhir, 2003]) (a medical imaging data examiner) software (an open-source software, Los Angeles, CA, United States) and PMOD (PMOD 4.01, PMOD Technologies Ltd., Zurich, Switzerland).
(§2) Dynamic PET data were collected and the corresponding images were reconstructed by 3D-MLEM method resulting in full width at a half-maximum resolution of 1 mm. Volumes of interest (VOIs) were generated manually in forms of spheres under the guide of high-resolution CT structural images. TACs were exported as decay-corrected activity per unit volume. The TACs were expressed as percent injected dose per unit volume (%ID/cc) for analysis.

BET proteins = assay: PET/CT blocking studies in mice (specific binding); type: in vivo; conditions: for radioactivity reduction in the whole-brain: based on TACs; for decrease of radioligand concentration in organs of interest: average over organs
Method: To evaluate the specific binding of [^11C]1, the blocking studies were carried out. Mice were pre-treated with unlabeled 1 (1.0 mg/kg) and JQ1 (1.0 mg/kg) at 5-min prior to the administration of [^11C]1. The PET/CT imaging and time-activity curves (TAC) of baseline and blocking studies are shown separately in Figure 3.
as §1, §2

| SMILES | selectivity over non-BET bromodomain-containing proteins [1] | pKi (BET BD1; binding affinity to BET BD1) | pKd (BET BD1; to BET BD1, printed in Figure 1) | distribution in blood-rich organs ([2]; heart, liver and kidney, i.v. tail vein, 5-60 min post-injection) | time of max brain uptake ([2]; post-injection, whole brain) [min] | brain-blood barrier (BBB) penetration ([2]; whole brain PET) | max brain uptake ([2]; whole-brain analysis, i.v.) [% ID/cc] | radioactivity reduction in the whole-brain (BET proteins; JQ1-blocking (1.0 mg/kg JQ1)) [%] | decrease of radioligand concentration in organs of interest (BET proteins; JQ1-blocking: pre-treated with JQ1 (1.0 mg/kg) 5 min prior) | radioactivity reduction in the whole-brain (BET proteins; self-blocking (1.0 mg/kg CF53)) [%] | decrease of radioligand concentration in organs of interest (BET proteins; self-blocking: pre-treated with unlabeled 1 (1.0 mg/kg) 5 min prior) |
| --- | --- | --- | --- | --- | --- | --- | --- | --- | --- | --- | --- |
| COc1cc2c(cc1-c1c(C)noc1C)[nH]c1nc(C)nc(Nc3cc(C4CC4)nn3C)c12 [Compound 1] | high selectivity | > 9.00 | 8.66 to 9.31 |  |  |  |  |  |  |  |  |
| Cc1nc(Nc2cc(C3CC3)nn2C)c2c(n1)[nH]c1cc(-c3c(C)noc3C)c(O[11CH3])cc12 [[^11C]1] |  |  |  | highly distributed | ~2 | limited | 0.9 | ~50 | over 40% | ~50 | over 40% |
